Source: patent US11135320B2, “Radioligands for pretargeted pet imaging and methods of their therapeutic use” (priority 2015, dated 2021)
Values joined by “and” are separate entries in the source; they are usually repeats but may differ in a detail not shown here. Identical values can stand only once.

System: subcutaneous SW1222 xenografts (A33 antigen-expressing human colorectal carcinoma)
Test: Pretargeted biodistribution with huA33-TCO and ^64Cu-tetrazine radioligand
Assay type: in vivo, athymic nude mice
Conditions: 120 h accumulation interval
Method: Female athymic nude mice bearing subcutaneous SW1222 (right shoulder) xenografts (100-150 mm^3, 18-21 days post-inoculation) were administered 100 μg (0.66 nmol) huA33-TCO (in 200 μL 0.9% sterile saline) via intravenous tail vein injection. […] The specific activity of the radiotracer was adjusted using cold ^natCu-Tz-SarAr such that the molar ratio of Tzinjected:huA^33injected=1:1. Animals (n=4 per group) were euthanized by CO2(g) asphyxiation at 1, 4, 12, and 24 h after injection. After asphyxiation, 13 tissues were removed, rinsed in water, dried in air for 5 min, weighed, and counted in a gamma counter calibrated for ^64Cu. Counts were converted into activity using a calibration curve generated from known standards. Count data were background- and decay-corrected to the time of injection, and the percent injected dose per gram (% ID/g) for each tissue sample was calculated by normalization to the total activity injected. Contents within the stomach, small intestine, and large intestine were not removed for the measurements.
Contents within the stomach, small intestine, and large intestine were not removed for the measurements. […] Zeglis, B. M. et al. “A pretargeted PET imaging strategy based on bioorthogonal Diels-Alder click chemistry.” Journal of Nuclear Medicine. 54, 1389-1396 (2013). ©2013 by the Society of Nuclear Medicine and Molecular Imaging, Inc.
Zeglis, B. M. et al. “A pretargeted PET imaging strategy based on bioorthogonal Diels-Alder click chemistry.” Journal of Nuclear Medicine. 54, 1389-1396 (2013). ©2013 by the Society of Nuclear Medicine and Molecular Imaging, Inc.
(§1) Female athymic nude mice bearing subcutaneous SW1222 (right shoulder) xenografts (100-150 mm^3, 18-21 days post-inoculation) were administered 100 μg (0.66 nmol) huA33-TCO (in 200 μL 0.9% sterile saline) via intravenous tail vein injection. After an accumulation interval of 48 h, the same mice were then administered ^64Cu-Tz-SarAr (300-350 μCi in 200 μL 0.9% sterile saline) via intravenous tail vein injection (t=0). The specific activity of the radiotracer was adjusted using cold ^natCu-Tz-SarAr such that the molar ratio of Tzinjected:huA^33injected=1:1. Animals (n=4 per group) were euthanized by CO2(g) asphyxiation at 1, 4, 12, and 24 h after injection. After asphyxiation, tissues were removed, rinsed in water, dried in air for 5 min, weighed, and counted in a gamma counter calibrated for ^64Cu. Counts were converted into activity using a calibration curve generated from known standards. Count data were background- and decay-corrected to the time of injection, and the percent injected dose per gram (% ID/g) for each tissue sample was calculated by normalization to the total activity injected. Contents within the stomach, small intestine, and large intestine were not removed for the measurements.
as §1, with “120” for “48”, “Contents within the stomach, small intestine, and large intestine were not removed for the measurements.” left out

NC12CNCCNCC(NCc3ccc(CNC(=O)CCCC(=O)NCc4ccc(-c5nncnn5)cc4)cc3)(CNCCNC1)CNCCNC2.[64Cu+2] [^64Cu-Tz-SarAr]
Blood activity concentration (4 h p.i.): 1.05±0.29 % ID/g
Bone activity concentration (4 h p.i.): 0.16 ± 0.04 % ID/g
Heart activity concentration (4 h p.i.): 0.43 ± 0.11 % ID/g
Kidney activity concentration (4 h p.i.): 2.10 ± 0.20 % ID/g
Large Intestine activity concentration (4 h p.i.): 0.20 ± 0.13 % ID/g
Liver activity concentration (4 h p.i.): 1.16 ± 0.39 % ID/g
Lung activity concentration (4 h p.i.): 0.91 ± 0.22 % ID/g
Muscle activity concentration (4 h p.i.): 0.11 ± 0.05 % ID/g
Small Intestine activity concentration (4 h p.i.): 0.22 ± 0.03 % ID/g
Spleen activity concentration (4 h p.i.): 0.50 ± 0.05 % ID/g
Stomach activity concentration (4 h p.i.): 0.25 ± 0.12 % ID/g
Tumor activity concentration (4 h p.i.): 3.6±0.7 % ID/g and 3.55 ± 0.74 % ID/g
Tumor/Blood activity concentration ratio (4 h p.i.): 3.37 ± 1.16
Tumor/Bone activity concentration ratio (4 h p.i.): 21.53 ± 7.14
Tumor/Heart activity concentration ratio (4 h p.i.): 8.24 ± 2.71
Tumor/Kidney activity concentration ratio (4 h p.i.): 1.69 ± 0.39
Tumor/Large Intestine activity concentration ratio (4 h p.i.): 17.82 ± 12.22
Tumor/Liver activity concentration ratio (4 h p.i.): 3.06 ± 1.2
Tumor/Lung activity concentration ratio (4 h p.i.): 3.89 ± 1.23
Tumor/Muscle activity concentration ratio (4 h p.i.): 32.58 ± 16.17
Tumor/Small Intestine activity concentration ratio (4 h p.i.): 16.22 ± 3.91
Tumor/Spleen activity concentration ratio (4 h p.i.): 7.03 ± 1.64
Tumor/Stomach activity concentration ratio (4 h p.i.): 14.04 ± 7.07
Blood activity concentration (12 h p.i.): 0.44 ± 0.14 % ID/g
Bone activity concentration (12 h p.i.): 0.11 ± 0.04 % ID/g
Heart activity concentration (12 h p.i.): 0.34 ± 0.20 % ID/g
Kidney activity concentration (12 h p.i.): 2.11 ± 0.13 % ID/g
Large Intestine activity concentration (12 h p.i.): 0.09 ± 0.03 % ID/g
Liver activity concentration (12 h p.i.): 0.96 ± 0.09 % ID/g
Lung activity concentration (12 h p.i.): 0.59 ± 0.27 % ID/g
Muscle activity concentration (12 h p.i.): 0.08 ± 0.04 % ID/g
Small Intestine activity concentration (12 h p.i.): 0.15 ± 0.07 % ID/g
Spleen activity concentration (12 h p.i.): 0.34 ± 0.14 % ID/g
Stomach activity concentration (12 h p.i.): 0.09 ± 0.03 % ID/g
Tumor activity concentration (12 h p.i.): 3.29 ± 0.40 % ID/g
Tumor/Blood activity concentration ratio (12 h p.i.): 7.46 ± 2.54
Tumor/Bone activity concentration ratio (12 h p.i.): 29.07 ± 11.14
Tumor/Heart activity concentration ratio (12 h p.i.): 9.56 ± 5.64
Tumor/Kidney activity concentration ratio (12 h p.i.): 1.56 ± 0.21
Tumor/Large Intestine activity concentration ratio (12 h p.i.): 35.43 ± 12.17
Tumor/Liver activity concentration ratio (12 h p.i.): 3.43 ± 0.52
Tumor/Lung activity concentration ratio (12 h p.i.): 5.55 ± 2.62
Tumor/Muscle activity concentration ratio (12 h p.i.): 38.74 ± 20.11
Tumor/Small Intestine activity concentration ratio (12 h p.i.): 21.47 ± 9.60
Tumor/Spleen activity concentration ratio (12 h p.i.): 9.63 ± 4.03
Tumor/Stomach activity concentration ratio (12 h p.i.): 38.07 ± 12.42
Blood activity concentration (24 h p.i.): 0.75 ± 0.23 % ID/g
Bone activity concentration (24 h p.i.): 0.25 ± 0.08 % ID/g
Heart activity concentration (24 h p.i.): 0.40 ± 0.16 % ID/g
Kidney activity concentration (24 h p.i.): 1.90 ± 0.17 % ID/g
Large Intestine activity concentration (24 h p.i.): 0.16 ± 0.04 % ID/g
Liver activity concentration (24 h p.i.): 1.06 ± 0.16 % ID/g
Lung activity concentration (24 h p.i.): 0.85 ± 0.29 % ID/g
Muscle activity concentration (24 h p.i.): 0.14 ± 0.05 % ID/g
Small Intestine activity concentration (24 h p.i.): 0.17 ± 0.06 % ID/g
Spleen activity concentration (24 h p.i.): 0.69 ± 0.17 % ID/g
Stomach activity concentration (24 h p.i.): 0.15 ± 0.08 % ID/g
Tumor activity concentration (24 h p.i.): 4.34 ± 0.98 % ID/g
Tumor/Blood activity concentration ratio (24 h p.i.): 5.74±2.17
Tumor/Bone activity concentration ratio (24 h p.i.): 17.16 ± 6.90
Tumor/Heart activity concentration ratio (24 h p.i.): 10.76 ± 4.94
Tumor/Kidney activity concentration ratio (24 h p.i.): 2.29 ± 0.56
Tumor/Large Intestine activity concentration ratio (24 h p.i.): 26.48 ± 8.29
Tumor/Liver activity concentration ratio (24 h p.i.): 4.09 ± 1.13
Tumor/Lung activity concentration ratio (24 h p.i.): 5.09 ± 2.06
Tumor/Muscle activity concentration ratio (24 h p.i.): 30.39 ± 11.94
Tumor/Small Intestine activity concentration ratio (24 h p.i.): 25.34 ± 10.4
Tumor/Spleen activity concentration ratio (24 h p.i.): 6.26 ± 2.09
Tumor/Stomach activity concentration ratio (24 h p.i.): 29.21 ± 17.97
